This is an account of results in patent publication US20240226062A1, “METHODS AND COMPOSITIONS FOR THE TREATMENT OF DISORDERS CHARACTERIZED BY A KIDINS220 DYSFUNCTION IN A SUBJECT” (priority 2021, published 2024).

Assay [1] relates to SNX27-retromer. Put plainly: Immunofluorescence of SNX27-retromer localization in primary cortical neurons under NMDA excitotoxicity. The format is cell-based, rat. How it is done: (§1) Cell culture, treatment and transfection of primary cortical astrocytes, neurons and HEK293T cells. Mouse cortical astrocytes were prepared from cerebral cortices of 0 to 2-day-old mice pups according to standard methods. Cells seeded on plates or glass coverslips coated with poly-L-lysine (10 μg/ml) and laminin (4 μg/ml) at a density of 5×10^4 cells/cm2 in complete DMEM-F12. After 2 additional days (DIV14-16) astrocytes were treated with vehicle (DMSO), 100 nM bafilomycin Al (Sigma Co.; St. Louis, MO, USA) for 16 h or 10 μM R55 (MedKoo Biosciences, Inc.; Morrisville, NC, USA) for 48 h. Neuronal cultures were prepared from cerebral cortex of 19-day-old Wistar rat embryos, as we have previously described (Lopez-Menendez et al. 2019). Neurons were used after 10 days in vitro (DIV) for immunofluorescence and DIV14 for biochemical assays. Neurons were pretreated or treated for different times as indicated: 50 μM NMDA and 10 μM glycine (Sigma Co.; St. Louis, MO, USA); 200 μM DL-AP5 (Tocris; Bristol, UK); 5 μM […]. Excitotoxicity was induced by treatment with the NMDAR coagonists NMDA and glycine (referred as NMDA treatment). DL-AP5 or […] were added 1 h or 48 h before NMDA treatment, respectively. HEK293T cells were cultured and transfected by standard procedures. HEK293T cells and DIV12-14 primary astrocytes were seeded at 50-60% confluence. […]

Assay [2] has as its system SNX27-retromer. Kind of assay: Immunoblot of NMDA-induced degradation of SNX27-retromer components and cargos in primary cortical neurons. The format is cell-based, rat. Conditions: 50 μM NMDA and 10 μM glycine; DL-AP5 (200 μM) added 1 h or R55 (5 μM) 48 h before. How it is done:
(§2) Cell culture, treatment and transfection of primary cortical astrocytes, neurons and HEK293T cells. Mouse cortical astrocytes were prepared from cerebral cortices of 0 to 2-day-old mice pups according to standard methods. Cells seeded on plates or glass coverslips coated with poly-L-lysine (10 μg/ml) and laminin (4 μg/ml) at a density of 5×10^4 cells/cm2 in complete DMEM-F12. After 2 additional days (DIV14-16) astrocytes were treated with vehicle (DMSO), 100 nM bafilomycin Al (Sigma Co.; St. Louis, MO, USA) for 16 h or 10 μM R55 (MedKoo Biosciences, Inc.; Morrisville, NC, USA) for 48 h. Neuronal cultures were prepared from cerebral cortex of 19-day-old Wistar rat embryos, as we have previously described (Lopez-Menendez et al. 2019). Neurons were used after 10 days in vitro (DIV) for immunofluorescence and DIV14 for biochemical assays. Neurons were pretreated or treated for different times as indicated: 50 μM NMDA and 10 μM glycine (Sigma Co.; St. Louis, MO, USA); 200 μM DL-AP5 (Tocris; Bristol, UK); 5 μM R55. Excitotoxicity was induced by treatment with the NMDAR coagonists NMDA and glycine (referred as NMDA treatment). DL-AP5 or R55 were added 1 h or 48 h before NMDA treatment, respectively. HEK293T cells were cultured and transfected by standard procedures. HEK293T cells and DIV12-14 primary astrocytes were seeded at 50-60% confluence. Two days later cells were transfected in Opti-MEM by using 0.7 μl of Lipofectamine 2000@ reagent (ThermoFisher Scientific) and 0.7 μg of DNA per 24 multi-well plate, according to the manufacturer's specifications. Cells were fixed and processed for immunofluorescence or washed with PBS to prepare protein extracts for immunoprecipitation experiments.
Preparation of protein extracts, immunoprecipitation, and immunoblot analysis. Protein extracts from mice tissue, primary cell cultures or HEK293T cells were prepared in RIPA by standard methods. Briefly, cultured cells were lysed in RIPA buffer (25 mM Tris-HCl, pH 7.6, 1% Triton X-100, 0.5% sodium deoxycholate, 0.1% SDS, 150 mM NaCl) with protease and phosphatase inhibitors for 30 min at 4° C. Lysates were centrifuged for 30 min at 14,000 rpm at 4° C., and resulting supernatant was considered the total lysate soluble fraction. Different mouse tissues were dissected, frozen in dry ice and homogenized in RIPA buffer as above using potter and Polytron homogenizers. For immunoprecipitation, total lysates were incubated with anti-VPS35 or anti-GFP antibody for 4 h at 4° C., before binding immunocomplexes to protein A sepharose beads for 1 h at 4° C. Beads were washed four times with RIPA buffer before adding Laemli sample buffer. Note that sample boiling was avoided to detect properly AQP4 band by immunoblots. Equal amounts of total lysates or immunoprecipitates were resolved in SDS-PAGE and analysed by immunoblot. Membranes were incubated with different primary and secondary antibodies and immunoreactive bands were detected by ECL (PerkinElmer, Waltham, MA USA). Immunoblot images have been cropped for presentation.
Quantitative and statistical analysis. Immunoblot signals were quantified by densitometric analysis with ImageJ 1.47d software (NIH) and normalized using β-actin, α-tubulin or GFAP band signal intensities. Data were expressed relative to values obtained in their respective untreated controls or WT mice or astrocytes. For immunofluorescence quantitative analysis of mice and human brain samples, fluorescence intensity of specific antibodies was measured at the ependymal barrier of lateral ventricles using ImageJ 1.47d software (NIH). Specific ROIs were defined in each brain section at the ependymal barrier boundaries, identified by DAPI staining of ependymal cell nuclei. In those regions, fluorescence signal above a certain threshold, stablished as background, was quantified. In the case of human brain necropsies, nine randomly selected ROIs were used for the analysis. […]

In assay [3] the test system is primary cortical neurons. Particulars: DL-AP5 preincubation; Lopez-Menendez et al. 2009; cited from earlier work.
Assay [4] relates to mouse model with plaques and tangles. Particulars: AD mouse model, Li et al. 2020; cited from earlier work.
Assay [5] deals with trimeric Vps35-Vps29-Vps26 core. Conditions: Mecozzi et al. 2014; cited from earlier work.
Assay [6] has as its target T1, SNX27-retromer (Mus musculus, UniProt Q9EQH3+Q9QZ88).
T1 construct: endogenous in cells; host or cells: primary mouse cortical astrocytes
Kind of assay: Immunoblot of retromer complex and cargo protein levels in cultured astrocytes treated with R55. The format is cell-based. Conditions: 10 μM R55 for 48 h. How it is done:
Cell culture, treatment and transfection of primary cortical astrocytes, neurons and HEK293T cells. Mouse cortical astrocytes were prepared from cerebral cortices of 0 to 2-day-old mice pups according to standard methods. Cells seeded on plates or glass coverslips coated with poly-L-lysine (10 μg/ml) and laminin (4 μg/ml) at a density of 5×10^4 cells/cm2 in complete DMEM-F12. After 2 additional days (DIV14-16) astrocytes were treated with vehicle (DMSO), 100 nM bafilomycin Al (Sigma Co.; St. Louis, MO, USA) for 16 h or 10 μM R55 (MedKoo Biosciences, Inc.; Morrisville, NC, USA) for 48 h. Neuronal cultures were prepared from cerebral cortex of 19-day-old Wistar rat embryos, as we have previously described (Lopez-Menendez et al. 2019). Neurons were used after 10 days in vitro (DIV) for immunofluorescence and DIV14 for biochemical assays. Neurons were pretreated or treated for different times as indicated: 50 μM NMDA and 10 μM glycine (Sigma Co.; St. Louis, MO, USA); 200 μM DL-AP5 (Tocris; Bristol, UK); 5 μM R55. Excitotoxicity was induced by treatment with the NMDAR coagonists NMDA and glycine (referred as NMDA treatment). DL-AP5 or R55 were added 1 h or 48 h before NMDA treatment, respectively. […]
Preparation of protein extracts, immunoprecipitation, and immunoblot analysis. […] Equal amounts of total lysates or immunoprecipitates were resolved in SDS-PAGE and analysed by immunoblot. Membranes were incubated with different primary and secondary antibodies and immunoreactive bands were detected by ECL (PerkinElmer, Waltham, MA USA). […]
Quantitative and statistical analysis. Immunoblot signals were quantified by densitometric analysis with ImageJ 1.47d software (NIH) and normalized using β-actin, α-tubulin or GFAP band signal intensities. […] For immunofluorescence quantitative analysis of mice and human brain samples, fluorescence intensity of specific antibodies was measured at the ependymal barrier of lateral ventricles using ImageJ 1.47d software (NIH). […] In those regions, fluorescence signal above a certain threshold, stablished as background, was quantified. […]

The test system of assay [7] is primary cortical neurons. Put plainly: Neuronal viability under NMDAR-induced excitotoxicity (MTT reduction assay, MAP2 staining). The format is cell-based, rat. Conditions: neurons incubated with NMDA for 6 h, R55 5 μM added 48 h before. How it is done:
as §1
(In general: Tetrazolium assays rely on reduction of a dye to a coloured formazan, in cell work by metabolically active cells.)

In a further assay the test system is AQP4. Kind of assay: Effect of bafilomycin A1 on protein levels in WT and Kidins220^f/f astrocytes (immunofluorescence and immunoblot). The format is cell-based, mouse. Particulars: for AQP4 levels: 100 nM bafilomycin A1 for 16 h. How it is done:
as §2
Preparation of protein extracts, immunoprecipitation, and immunoblot analysis. Protein extracts from mice tissue, primary cell cultures or HEK293T cells were prepared in RIPA by standard methods. Briefly, cultured cells were lysed in RIPA buffer (25 mM Tris-HCl, pH 7.6, 1% Triton X-100, 0.5% sodium deoxycholate, 0.1% SDS, 150 mM NaCl) with protease and phosphatase inhibitors for 30 min at 4° C. Lysates were centrifuged for 30 min at 14,000 rpm at 4° C., and resulting supernatant was considered the total lysate soluble fraction. […] Equal amounts of total lysates or immunoprecipitates were resolved in SDS-PAGE and analysed by immunoblot. Membranes were incubated with different primary and secondary antibodies and immunoreactive bands were detected by ECL (PerkinElmer, Waltham, MA USA). […]
Quantitative and statistical analysis. Immunoblot signals were quantified by densitometric analysis with ImageJ 1.47d software (NIH) and normalized using β-actin, α-tubulin or GFAP band signal intensities. […]
(A western blot detects proteins with antibodies after separation by electrophoresis.)

Setting [8] is: Kidins220^f/f deficient astrocytes, bafilomycin A1 treatment (not shown).

As to `NC(CCCP(=O)(O)O)C(=O)O` (racemic) [DL-AP5], the “SNX27-retromer intracellular organization and colocalization of SNX27 and VPS35 (Pearson's correlation coefficient)” value in the assay on SNX27-retromer [1] (neurons pretreated 1 h with 200 μM DL-AP5, then 50 μM NMDA and 10 μM glycine) was “preserved”. Besides, in the assay on SNX27-retromer [2], the “NMDA-induced degradation of FAM21” value is listed as “blocked”, the “NMDA-induced degradation of GluN2B subunit of the NMDAR” value is listed as “decreasing”, the “NMDA-induced degradation of SNX27” value is reported as “blocked” and the “NMDA-induced degradation of SNX27-retromer cargo Kidins220” value was “decreasing”. Also, the “cleavage of the calpain substrate spectrin into breakdown products (BDPs)” value in the assay with SNX27-retromer [2] is listed as “reduced”. Moreover, in the assay on primary cortical neurons [3], the neuronal survival entry was “preserves”.
For the molecule `Cl.N=C(N)SCc1cccs1` [R33, thiophen-2-ylmethyl carbamimidothioate hydrochloride], in assay [4], the VPS35 levels entry is reported as “elevation”; the “amyloid-beta (Aβ) levels and deposition” value is “significant decrease”; the astrocytes activation entry is on record as “less”; the learning and memory entry was “significant improvement”. In assay [4], the synaptic integrity entry is reported as “improved” and the tau phosphorylation result is given as “reduced”. In assay [5], the retromer levels result is recorded as “increased” and the “retromer-mediated trafficking of cargos” value is reported as “enhanced”.
For the molecule `Cl.Cl.N=C(N)SCc1ccc(CSC(=N)N)s1` [R55, thiophene-2,5-diylbis(methylene) dicarbamimidothioate dihydrochloride], on SNX27-retromer [6], the AQP4 content entry was “increased”, the Kidins220 levels result was “mild effect on elevating” and the VPS35 levels entry is on record as “mild effect on elevating”. Besides, the “SNX27, FAM21 and VPS35 localization in endocytic vesicles” value with SNX27-retromer [1] (neurons pretreated 48 h with 5 μM R55, then excitotoxic NMDA) was “preserved”. In addition, in the assay on SNX27-retromer [2], the “NMDA-induced degradation of FAM21” value was “decreasing”, the “NMDA-induced degradation of GluN2B subunit of the NMDAR” value was “decreasing”, the “NMDA-induced degradation of SNX27” value was “decreasing” and the “NMDA-induced degradation of SNX27-retromer cargo Kidins220” value is “decreasing”. For the same molecule, the “cleavage of the calpain substrate spectrin into breakdown products (BDPs)” value with SNX27-retromer [2] is recorded as “diminishment”. Besides, the “neuroprotection (MAP2 immunofluorescence and MTT-viability assays)” value in the assay on primary cortical neurons [7] is on record as “strong neuroprotection”. In assay [5], the retromer levels result is listed as “increased” and the “retromer-mediated trafficking of cargos” value was “enhanced”.
Regarding `CO/C1=C\C(C)=C\[C@@H](C)[C@@H](O)[C@@H](C)C/C(C)=C/C=C/[C@H](OC)[C@@H]([C@@H](C)[C@@H](O)[C@H](C)[C@@]2(O)C[C@@H](O)[C@H](C)[C@@H](C(C)C)O2)OC1=O` [bafilomycin A1], the AQP4 levels result in the assay on AQP4 (Kidins220^f/f astrocytes) and in the assay with AQP4 (WT astrocytes) was “significant increase” in each case. In the assay on AQP4 (setting [8]), the “loss of SNX27” value is given as “not rescued”. The “loss of VPS35” value in the assay on AQP4 (setting [8]) was “not rescued”.
